Assays:
[1] = tested on: Caco-2; experiment: cell viability relative to DMSO; higher = less toxic; conditions: 72 h
[2] = tested on: Calu-3; experiment: as above; conditions: 72 h
[3] = tested on: HepG2; experiment: as above; conditions: 72 h
[4] = tested on: U2OS; experiment: as above; conditions: 72 h
[5] = tested on: Vero E6; experiment: as above; conditions: 72 h
[6] = tested on: Caco-2; experiment: relative viability EC50 (midpoint between 100% and the lowest measured viability); higher = less toxic; conditions: 72 h
[7] = tested on: Calu-3; experiment: as above; conditions: 72 h
[8] = tested on: HepG2; experiment: as above; conditions: 72 h
[9] = tested on: U2OS; experiment: as above; conditions: 72 h
[10] = tested on: Vero E6; experiment: as above; conditions: 72 h
[11] = tested on: Caco-2; experiment: drug sensitivity score (DSS) for viability; higher = more toxic; extreme values may be limits of the assay; conditions: 72 h
[12] = tested on: Calu-3; experiment: as above; conditions: 72 h
[13] = tested on: HepG2; experiment: as above; conditions: 72 h
[14] = tested on: U2OS; experiment: as above; conditions: 72 h
[15] = tested on: Vero E6; experiment: as above; conditions: 72 h
[16] = tested on: A549-ACE2 infected with SARS-CoV-2; experiment: cell count relative to DMSO; higher = less toxic; conditions: 24 h
[17] = tested on: A549-ACE2 infected with SARS-CoV-2; experiment: SARS-CoV-2 infection rate relative to DMSO; higher = more infection; conditions: 24 h
[18] = tested on: A549-ACE2; experiment: phospholipidosis EC50; higher = less potent phospholipidosis inducer
[19] = tested on: A549-ACE2; experiment: drug-induced phospholipidosis relative to tamoxifen; higher = more phospholipidosis
[20] = tested on: A549-ACE2 infected with SARS-CoV-2; experiment: morphology score (similarity to uninfected cells); higher = more like uninfected cells; conditions: 24 h

CNCCCC1(c2ccccc2)OC(C)(C)c2ccccc21 (stereo unspecified) [talopram]
cell viability [%]
Conditions	[1]	[2]	[3]	[4]	[5]
1 nM	91.4	99.4	101	101	93.7
10 nM	104	102	102	98.7	96.8
100 nM	103	102	89.8	100	90.1
1000 nM	101	96.3	110	99.4	99
10000 nM	99.2	103	106	99	104

Conditions	drug sensitivity score	relative viability EC50 [µM]
[6]	–	> 10
[7]	–	> 10
[8]	–	> 10
[9]	–	> 10
[10]	–	> 10
[11]	0	–
[12]	0	–
[13]	0	–
[14]	0	–
[15]	0	–

NCCS(=O)(=O)O [taurine]
cell viability [%]
Conditions	[1]	[2]	[3]	[4]	[5]
1 nM	94.9	100	110	94.4	94.5
10 nM	99.3	106	99.4	100	95.3
100 nM	98	102	101	98.9	95.1
1000 nM	95.6	97.6	102	103	89.1
10000 nM	103	101	104	101	106

Conditions	drug sensitivity score	relative viability EC50 [µM]
[6]	–	> 10
[7]	–	> 10
[8]	–	> 10
[9]	–	> 10
[10]	–	> 10
[11]	0	–
[12]	0	–
[13]	0	–
[14]	0	–
[15]	0	–

COc1cccc([C@@H](C)NCCCc2ccccc2Cl)c1 [tecalcet]
Conditions	SARS-CoV-2 infection rate [%]	cell count [%]	cell viability [%]	morphology score	phospholipidosis EC50 [µM]
[1], 1 nM	–	–	101	–	–
[1], 10 nM	–	–	94.8	–	–
[1], 100 nM	–	–	94.5	–	–
[1], 1000 nM	–	–	92.4	–	–
[1], 10000 nM	–	–	86.3	–	–
[3], 1 nM	–	–	92.9	–	–
[3], 10 nM	–	–	101	–	–
[3], 100 nM	–	–	101	–	–
[3], 1000 nM	–	–	108	–	–
[3], 10000 nM	–	–	83.1	–	–
[4], 1 nM	–	–	101	–	–
[4], 10 nM	–	–	97.6	–	–
[4], 100 nM	–	–	101	–	–
[4], 1000 nM	–	–	102	–	–
[4], 10000 nM	–	–	90.2	–	–
[5], 1 nM	–	–	108	–	–
[5], 10 nM	–	–	103	–	–
[5], 100 nM	–	–	101	–	–
[5], 1000 nM	–	–	101	–	–
[5], 10000 nM	–	–	96.2	–	–
[16], 0.3 µM	–	97	–	–	–
[16], 3 µM	–	105	–	–	–
[16], 10 µM	–	116	–	–	–
[16], 30 µM	–	112	–	–	–
[17], 0.3 µM	111	–	–	–	–
[17], 3 µM	84	–	–	–	–
[17], 10 µM	52	–	–	–	–
[17], 30 µM	10	–	–	–	–
[18], 24 h	–	–	–	–	6.31
[18], 48 h	–	–	–	–	8.26
[18], 72 h	–	–	–	–	11.4
[20], 0.3 µM	–	–	–	-0.35	–
[20], 3 µM	–	–	–	0.47	–
[20], 10 µM	–	–	–	0.9	–
[20], 30 µM	–	–	–	0.78	–

drug-induced phospholipidosis [%], [19]
Conditions	0.3 µM	0.833333 µM	3.33333 µM	6.66667 µM	10 µM	30 µM
24 h	3.6	1.52	14.2	49.8	74.2	90
48 h	5	4.11	18.9	41.5	67.1	98.2
72 h	7.69	2.06	15.2	34.4	61.6	117

Conditions	drug sensitivity score	relative viability EC50 [µM]
[6]	–	> 10
[8]	–	> 10
[9]	–	> 10
[10]	–	> 10
[11]	0.2	–
[13]	0.2	–
[14]	0	–
[15]	0	–

CCCc1nc2c(C)cc(-c3nc4ccccc4n3C)cc2n1Cc1ccc(-c2ccccc2C(=O)O)cc1 [telmisartan]
cell viability [%]
Conditions	[1]	[2]	[3]	[4]	[5]
1 nM	89.5	92.9	94.2	97.3	100
10 nM	97.3	97.9	95.1	105	95.9
100 nM	90.7	102	103	97.5	96
1000 nM	90.6	102	99.8	98.9	92.9
10000 nM	87.5	108	111	98.6	96.6

Conditions	drug sensitivity score	relative viability EC50 [µM]
[6]	–	> 10
[7]	–	> 10
[8]	–	> 10
[9]	–	> 10
[10]	–	> 10
[11]	0	–
[12]	0	–
[13]	0	–
[14]	0	–
[15]	0	–

Cc1cc(N2CCN([C@@H]3CN[C@H](C(=O)N4CCSC4)C3)CC2)n(-c2ccccc2)n1 [teneligliptin]
cell viability [%]
Conditions	[1]	[2]	[3]	[4]	[5]
1 nM	104	104	101	95.8	104
10 nM	97.9	108	106	101	98.9
100 nM	94.3	92.6	98.4	99.5	101
1000 nM	101	91.9	97	100	99.2
10000 nM	90	102	94.7	98.3	98.2

Conditions	drug sensitivity score	relative viability EC50 [µM]
[6]	–	> 10
[7]	–	> 10
[8]	–	> 10
[9]	–	> 10
[10]	–	> 10
[11]	0	–
[12]	0	–
[13]	0	–
[14]	0	–
[15]	0	–
